The values below come from patent US20220162215A1, “COMPOSITIONS AND METHODS OF USING THE SAME FOR TREATMENT OF NEURODEGENERATIVE AND MITOCHONDRIAL DISEASE” (MITOKININ, INC., priority 2019, published 2022).

Series [1] has as its system HeLa MKYP cells. Briefly: Toxicity / cell death measured by DAPI staining (take-up). The series is classed as cell-based. As to conditions: 50 μM; for Toxicity (% positive for DAPI take-up @ 50 μM): Table 1. As to the method: H2O2 treatment was performed as a control for cell death as measured by DAPI staining.
Briefly, HeLa MKYP cells were plated at 10,000 cells/well in 96 well plates along with compounds at various concentrations. Following 16 hrs of incubation, cells were treated with 1 uM FCCP/oligomycin for 6 hours, then analyzed via FACS for the presence of mitochondria in lysosomes (as determined by an emissions spectrum shift from the pH-sensitive mtKeima tag).

The subject of series [2] is HeLa MKYP cells. Briefly: Human mitophagy assay (HeLa MKYP, mtKeima FACS, FCCP/oligomycin). As to conditions: for Potency at 1 μM F/O toxin: Table 1; for Potency at 1 μM F/O toxin / activation at 6.3 µM: % activation of mitophagy at 6.3 μM treatment of the compound; for activation at 1.6 µM / activation at 6.3 µM: Homo sapiens, HeLa, 6 h, read-out: Potency at 1 μM F/O toxin*; for activation at 1.6 µM / Potency at 1 μM F/O toxin*: Table 2, % activation of mitophagy at 1.6 μM treatment of the compound; for activation at 6.3 µM: Table 3. The series is classed as cell-based. As to the method: Briefly, HeLa MKYP cells were plated at 10,000 cells/well in 96 well plates along with compounds at various concentrations. Following 16 hrs of incubation, cells were treated with 1 uM FCCP/oligomycin for 6 hours, then analyzed via FACS for the presence of mitochondria in lysosomes (as determined by an emissions spectrum shift from the pH-sensitive mtKeima tag). Examples are shown in FIG. 1 through FIG. 13 below.

Take `CCCCNc1ncnc2[nH]c(C(F)(F)F)cc12` [Compound 1]: the “Toxicity (% positive for DAPI take-up @ 50 μM)” value in series [1] is 4.6%. Besides, in series [2], the “Potency at 1 μM F/O toxin” value is 42.3%.

In the case of `CCCCNc1ncnc2[nH]c(-c3ccnn3C)cc12` [Compound 2], in series [1], the “Toxicity (% positive for DAPI take-up @ 50 μM)” value came to 94.6%. The “Potency at 1 μM F/O toxin” value in series [2] was 15.0%.

With `CCCCNc1ncnc2[nH]c(C(OCC)C(F)(F)F)cc12` (centres unmarked) [Compound 3], the “Toxicity (% positive for DAPI take-up @ 50 μM)” value in series [1] was 15.8%. In addition, in series [2], the “Potency at 1 μM F/O toxin” value is 25.9%.

On to `CCCCNc1ncnc2[nH]c(CC(F)(F)F)cc12` [Compound 4], for which, in series [1], the “Toxicity (% positive for DAPI take-up @ 50 μM)” value worked out at 24.8%. Also, the “Potency at 1 μM F/O toxin” value in series [2] is on record as 13.9%.

On to `CCCCNc1ncnc2[nH]c(C(OCC)C(F)(F)F)cc12` (centres unmarked) [Compound 5], for which the “Toxicity (% positive for DAPI take-up @ 50 μM)” value in series [1] turned out to be 47.4%. In addition, in series [2], the “Potency at 1 μM F/O toxin” value worked out at 17.9%.

`CCCCNc1ncnc2[nH]c(-c3ccccc3)cc12` [Compound 6]: the “Toxicity (% positive for DAPI take-up @ 50 μM)” value in series [1] amounted to 90.0%. The “Potency at 1 μM F/O toxin” value in series [2] is recorded as 52.0%.

In the case of `CCCCNc1ncnc2[nH]c(CC)cc12` [Compound 7], the “Toxicity (% positive for DAPI take-up @ 50 μM)” value in series [1] is given as 93.4%. For the same molecule, the “Potency at 1 μM F/O toxin” value in series [2] is on record as 14.0%.

In the case of `CCCCNc1ncnc2[nH]c(C)cc12` [Compound 8], the “Toxicity (% positive for DAPI take-up @ 50 μM)” value in series [1] turned out to be 15.4%. Moreover, the “Potency at 1 μM F/O toxin” value in series [2] worked out at 43.4%.

For the molecule `FC(F)(F)c1cc2c(NCc3ccccc3)ncnc2[nH]1` [Compound 9], the “Toxicity (% positive for DAPI takeup @ 50 μM)” value in series [1] (Table 2) is 50.4%. In addition, the activation at 1.6 µM in series [2] was 35.1%.

For `CC(C)(Nc1ncnc2[nH]c(C(F)(F)F)cc12)c1ccccc1` [Compound 10], the “Toxicity (% positive for DAPI takeup @ 50 μM)” value in series [1] (Table 2) was 5.6%. Moreover, in series [2], the activation at 1.6 µM is 17%.

In the case of `FC(F)(F)c1cc2c(NC3(c4ccccc4)CC3)ncnc2[nH]1` [Compound 11], in series [1] (Table 2), the “Toxicity (% positive for DAPI takeup @ 50 μM)” value is 80.5%. Also, in series [2], the activation at 1.6 µM is 20.8%.

For the molecule `CC(Nc1ncnc2[nH]c(C(F)(F)F)cc12)c1ccccc1` (centres unmarked) [Compound 12], the “Toxicity (% positive for DAPI takeup @ 50 μM)” value in series [1] (Table 2) worked out at 2.4%. In addition, the activation at 1.6 µM in series [2] is 88.4%.

For the molecule `FC(F)(F)c1cc2c(NC3COc4ccccc43)ncnc2[nH]1` (centres unmarked) [Compound 13], the “Toxicity (% positive for DAPI takeup @ 50 μM)” value in series [1] (Table 2) came out at 39.7%. Moreover, the activation at 1.6 µM in series [2] is 52.5%.

`COc1ccc2c(c1)CCCC2Nc1ncnc2[nH]c(C(F)(F)F)cc12` (centres unmarked) [Compound 14]: the “Toxicity (% positive for DAPI takeup @ 50 μM)” value in series [1] (Table 2) was found to be 95.5%. Besides, the activation at 1.6 µM in series [2] worked out at 29.8%.

Consider `FC(F)(F)c1cc2c(NC3CCCc4ccccc43)ncnc2[nH]1` (centres unmarked) [Compound 16], for which the “Toxicity (% positive for DAPI takeup @ 50 μM)” value in series [1] (Table 2) is on record as 4.5%. In addition, the “Potency at 1 μM F/O toxin*” value in series [2] is listed as 10.1%.

Take `FC(F)(F)c1cc2c(NC3CCc4ccccc43)ncnc2[nH]1` (centres unmarked) [Compound 17]: in series [1] (Table 2), the “Toxicity (% positive for DAPI takeup @ 50 μM)” value turned out to be 2.3%. Besides, the activation at 1.6 µM in series [2] was determined as 14.8%.

Consider `FC(F)(F)c1cc2c(NC3CCc4ccccc43)ncnc2[nH]1` (centres unmarked) [Compound 18], for which the “Toxicity (% positive for DAPI takeup @ 50 μM)” value in series [1] (Table 2) is 1.7%. Also, the “Potency at 1 μM F/O toxin*” value in series [2] is recorded as 14.3%.

Regarding `FC(F)(F)c1cc2c(NCc3cncnc3)ncnc2[nH]1` [Compound 19], in series [1] (human), the “Toxicity (% positive for DAPI takeup @ 50 μM)” value amounted to 1.7%. For the same molecule, the activation at 6.3 µM in series [2] turned out to be 50.3%.

Regarding `FC(F)(F)c1cc2c(NCc3ccncn3)ncnc2[nH]1` [Compound 20], the “Toxicity (% positive for DAPI takeup @ 50 μM)” value in series [1] (Table 3) was found to be 1.5%. Also, the activation at 6.3 µM in series [2] stood at 7.9%.

Turning to `FC(F)(F)c1cc2c(NCc3cnccn3)ncnc2[nH]1` [Compound 21], in series [1] (Table 3), the “Toxicity (% positive for DAPI takeup @ 50 μM)” value was found to be 0.9%. Also, the activation at 6.3 µM in series [2] was 9.1%.

As for `COc1ncccc1CNc1ncnc2[nH]c(C(F)(F)F)cc12` [Compound 22], in series [1] (Table 3), the “Toxicity (% positive for DAPI takeup @ 50 μM)” value is reported as 7.6%. For the same molecule, in series [2], the activation at 6.3 µM turned out to be 18.5%.

As to `Fc1cccc(CNc2ncnc3[nH]c(C(F)(F)F)cc23)c1Cl` [Compound 23], the “Toxicity (% positive for DAPI takeup @ 50 μM)” value in series [1] (Table 3) is on record as 4.5%. Besides, the activation at 6.3 µM in series [2] stood at 87.7%.
